Test system: Iron-Overloaded Cebus apella Primates
Experiment: Chelator-induced iron clearance in iron-overloaded Cebus apella primates
Type: in vivo
Conditions: po, 75 μmol/kg
Description: Chelator-Induced Iron Clearance in Iron-Overloaded Cebus apella Primates. The iron-clearance data for all three sets of ligands are presented (Table 2). […] J. Med. Chem. 2003, 46, 1470-1477]>1 (16.8±7.2%) [Bergeron, R. J., Wiegand, J., McManis, J. S., McCosar, B. H., Weimar, W. R., Brittenham, G. M. and Smith, R. E. Effects of C-4 Stereochemistry and C-4′ Hydroxylation on the Iron Clearing Efficiency and Toxicity of Desferrithiocin Analogues. J. Med. Chem. 1999, 42, 2432-2440], the increase is not significant. Although (S)-4′-(HO)-DADFT-PE (3) is the least lipophilic chelator in the 1-3 series, it is just as efficient (ICE, 25.4±7.4%) [Bergeron, R. J., Wiegand, J., McManis, J. S., Vinson, J. R. T., Yao, H., Bharti, N. and Rocca, J. R. (S)-4,5-Dihydro-2-(2-hydroxy-4-hydroxyphenyl)-4-methyl-4-thiazolecarboxylic Acid Polyethers: A Solution to Nephrotoxicity.
The monkeys (3.5-4 kg) were iron overloaded with intravenous iron dextran as specified in earlier publications to provide about 500 mg of iron per kg of body weight [Bergeron, R. J., Streiff, R. R., Wiegand, J., Luchetta, G., Creary, E. A. and Peter, H. H. A Comparison of the Iron-Clearing Properties of 1,2-Dimethyl-3-hydroxypyrid-4-one, 1,2-Diethyl-3-hydroxypyrid-4-one, and Deferoxamine. Blood 1992, 79, 1882-1890]; the serum transferrin iron saturation rose to between 70 and 80%. At least 20 half-lives, 60 d [Wood, J. K., Milner, P. F. and Pathak, U. N. The Metabolism of Iron-dextran Given as a Total-dose Infusion to Iron Deficient Jamaican Subjects. Br. J. Haematol. 1968, 14, 119-129], elapsed before any of the animals were used in experiments evaluating iron-chelating agents.
Fecal and urine samples were collected at 24-h intervals and processed as described previously [Bergeron, R. J., Streiff, R. R., Creary, E. A., Daniels, R. D., Jr., King, W., Luchetta, G., Wiegand, J., Moerker, T. and Peter, H. H. A Comparative Study of the Iron-Clearing Properties of Desferrithiocin Analogues with Desferrioxamine B in a Cebus Monkey Model. Blood 1993, 81, 2166-2173; Bergeron, R. J., Streiff, R. R., Wiegand, J., Vinson, J. R. T., Luchetta, G., Evans, K. M., Peter, H. and Jenny, H.-B. A Comparative Evaluation of Iron Clearance Models. Ann. N.Y. Acad. Sci. 1990, 612, 378-393; Bergeron, R. J., Wiegand, J. and Brittenham, G. M. HBED: A Potential Alternative to Deferoxamine for Iron-Chelating Therapy. Blood 1998, 91, 1446-1452]. Briefly, the collections began 4 d prior to the administration of the test drug and continued for an additional 5 d after the drug was given. Iron concentrations were determined by flame atomic absorption spectroscopy as presented in other publications [Bergeron, R. J., Streiff, R. R., Wiegand, J., Vinson, J. R. T., Luchetta, G., Evans, K. M., Peter, H. and Jenny, H.-B. A Comparative Evaluation of Iron Clearance Models. Ann. N.Y. Acad. Sci. 1990, 612, 378-393; Bergeron, R. J., Wiegand, J., Wollenweber, M., McManis, J. S., Algee, S. E. and Ratliff-Thompson, K. Synthesis and Biological Evaluation of Naphthyldesferrithiocin Iron Chelators. J. Med. Chem. 1996, 39, 1575-1581].
In the iron-clearing experiments, the rats were given a single 300 μmol/kg dose of drugs 1-9 orally (po).
J. Med. Chem. 1999, 42, 2432-2440].

SMILES	Iron-Clearing Efficiency (%)	relative percentages of the iron excreted in the stool and urine
COCCOCCOCCOc1ccc(O)c(C2=N[C@@](C)(C(=O)O)CS2)c1 [drawing 17]	8.1 ± 2.8%	56/44
COCCOCCOCCOc1cccc(C2=N[C@@](C)(C(=O)O)CS2)c1O [drawing 20]	24.5 ± 7.6%	72/28

— patent US9174948B2, “Desferrithiocin polyether analogues” (University of Florida Research Foundation, Inc., priority 2007, dated 2015)
